Assay results from patent publication US11491120B2, “Pharmacological prophylactics against stress-induced affective disorders in females” (The Trustees of Columbia University in the City of New York, priority 2017, dated 2022).
Entries after “also recorded” stand apart in the source; their conditions may differ.

How the values were obtained:
female 129S6/SvEv mice = assay: Forced swim test (FST), immobility time, after stress
male mice = assay: Prophylactic efficacy in male mice (immobility in the forced swim test); assay type: in vivo, mouse
[1] = Forced Swim Test Day 1, Dunnett test Sal vs. drug (0.3), 1 week prophylactic drug
[2] = Forced Swim Test Day 1, Dunnett test Sal vs. drug (2.5), 1 week prophylactic drug
[3] = Forced Swim Test Day 1, Dunnett test Sal vs. drug (10), 1 week prophylactic drug
[4] = Ovariectomized cohort, 1 week prophylactic drug, Forced Swim Test Day 1, OVX mice, K (10), (2R,6R)-HNK (0.025)
[5] = Ovariectomized cohort, 1 week prophylactic drug, Forced Swim Test Day 1, Sham mice, K (10), (2R,6R)-HNK (0.025)
[6] = Ovariectomized cohort, 1 week prophylactic drug, Forced Swim Test Day 1, Sham vs OVX, same drug, K (10), (2R,6R)-HNK (0.025)
[7] = Ovariectomized, E2/P4 replacement, 1 week prophylactic drug, Forced Swim Test Day 2, K (10), (2R,6R)-HNK (0.025), FIG. 5F
[8] = Ovariectomized, same drug, hormone Vehicle vs. E2/P4 replacement, 1 week prophylactic drug, Forced Swim Test Day 2, K (10), (2R,6R)-HNK (0.025), FIG. 5F
[9] = Sal vs. (2R,6R)-HNK (0.025), Fisher's PLSD, 1 week prophylactic drug, learned helplessness stress, Forced Swim Test Day 1
[10] = Sal vs. (2R,6R)-HNK (0.025), Fisher's PLSD, 3 day prophylactic drug/Forced Swim Test Day 1
[11] = Same drug, Sham vs. ovariectomized, 1 week prophylactic drug, Forced Swim Test Day 2, K (10), (2R,6R)-HNK (0.025), FIG. 5C
[12] = Sham-operated females, 1 week prophylactic drug, Forced Swim Test Day 2, K (10), (2R,6R)-HNK (0.025), FIG. 5C

## N[C@@]1(c2ccccc2Cl)CCC[C@@H](O)C1=O [(2R,6R)-HNK, (2R,6R)-hydroxynorketamine]
Female 129S6/SvEv mice; Forced Swim Test Day 1, Dunnett test Sal vs. drug (0.1), 1 week prophylactic drug
  p, Immobility Time Average (min 3-6): 0.3240
Female 129S6/SvEv mice; [1]
  p, Immobility Time (min 1): 0.0586
  p, Immobility Time (min 1-6): >0.9999
  p, Immobility Time (min 3): >0.9999
  p, Immobility Time (min 4): 0.7424
  p, Immobility Time (min 5): 0.3614
  p, Immobility Time (min 6): 0.9996
  p, Immobility Time Average (min 3-6): 0.9455
Female 129S6/SvEv mice; [2]
  * (significance), Immobility Time (min 1): ** (** p<0.01)
  p, Immobility Time (min 1): 0.0026
  p, Immobility Time (min 1-6): 0.7127
  p, Immobility Time (min 3): 0.9998
  p, Immobility Time (min 4): 0.9999
  p, Immobility Time (min 5): 0.9867
  p, Immobility Time (min 6): 0.9994
  p, Immobility Time Average (min 3-6): 0.9997
Female 129S6/SvEv mice; [3]
  p, Immobility Time (min 1): 0.0528
  p, Immobility Time (min 1-6): 0.9943
  p, Immobility Time (min 3): 0.6584
  p, Immobility Time (min 4): 0.5947
  p, Immobility Time (min 5): 0.6743
  p, Immobility Time (min 6): 0.1601
  p, Immobility Time Average (min 3-6): 0.3035
Female 129S6/SvEv mice; [4]
  p, Immobility Time (min 1-6), OVX Sal vs OVX drug: 0.2525
  p, Immobility Time Average (min 3-6), Fisher's PLSD, OVX Sal vs OVX drug: 0.3199
Female 129S6/SvEv mice; [5]
  p, Immobility Time (min 1-6), Sham Sal vs Sham drug: 0.7085
  p, Immobility Time Average (min 3-6), Fisher's PLSD, Sham Sal vs Sham drug: 0.9957
Female 129S6/SvEv mice; [6]
  * (significance), Immobility Time (min 1-6), Sham drug vs OVX drug: *** (*** p<0.0001)
  * (significance), Immobility Time Average (min 3-6), Fisher's PLSD, Sham drug vs OVX drug: *** (*** p<0.0001)
  p, Immobility Time (min 1-6), Sham drug vs OVX drug: <0.0001
  p, Immobility Time Average (min 3-6), Fisher's PLSD, Sham drug vs OVX drug: 0.0001
Female 129S6/SvEv mice; Ovariectomized females, 1 week prophylactic drug, Forced Swim Test Day 2, K (10), (2R,6R)-HNK (0.025), FIG. 5C
  p, Fisher's PLSD, Immobility Time Average (min 3-6), OVX Sal vs. OVX drug: 0.9445
Female 129S6/SvEv mice; [7]
  p, Fisher's PLSD, Immobility Time Average (min 3-6), E2/P4 Sal vs. E2/P4 drug: 0.0316
  significance (*), Fisher's PLSD, Immobility Time Average (min 3-6), E2/P4 Sal vs. E2/P4 drug: * (* p<0.05)
Female 129S6/SvEv mice; Ovariectomized, hormone Vehicle, 1 week prophylactic drug, Forced Swim Test Day 2, K (10), (2R,6R)-HNK (0.025), FIG. 5F
  p, Fisher's PLSD, Immobility Time Average (min 3-6), Vehicle Sal vs. Vehicle drug: 0.6287
Female 129S6/SvEv mice; [8]
  p, Fisher's PLSD, Immobility Time Average (min 3-6), Vehicle drug vs. E2/P4 drug: 0.0013
  significance (*), Fisher's PLSD, Immobility Time Average (min 3-6), Vehicle drug vs. E2/P4 drug: ** (** p<0.01)
Female 129S6/SvEv mice; [9]
  *, Immobility Time (min 1): ** (** p<0.01)
  *, Immobility Time (min 2): *** (*** p<0.0001)
  *, Immobility Time (min 3): *** (*** p<0.0001)
  *, Immobility Time (min 4): ** (** p<0.01)
  *, Immobility Time (min 5): ** (** p<0.01)
  *, Immobility Time (min 6): ** (** p<0.01)
  *, Immobility Time Average (min 1-6): *** (*** p<0.0001)
  p, Immobility Time (min 1): 0.0043
  p, Immobility Time (min 2): <0.0001
  p, Immobility Time (min 3): 0.0001
  p, Immobility Time (min 4): 0.0009
  p, Immobility Time (min 5): 0.0002
  p, Immobility Time (min 6): 0.0002
  p, Immobility Time Average (min 1-6): 0.0001
Female 129S6/SvEv mice; [10]
  *, Immobility Time (min 1): *** (*** p<0.0001)
  *, Immobility Time (min 2): ** (** p<0.01)
  *, Immobility Time (min 3): ** (** p<0.01)
  *, Immobility Time (min 4): ** (** p<0.01)
  *, Immobility Time (min 5): ** (** p<0.01)
  *, Immobility Time (min 6): ** (** p<0.01)
  *, Immobility Time Average (min 3-6): ** (** p<0.01)
  p, Immobility Time (min 1): <0.0001
  p, Immobility Time (min 2): 0.0005
  p, Immobility Time (min 3): 0.0073
  p, Immobility Time (min 4): 0.0039
  p, Immobility Time (min 5): 0.0006
  p, Immobility Time (min 6): 0.0006
  p, Immobility Time Average (min 3-6): 0.0008
Female 129S6/SvEv mice; Sal vs. (2R,6R)-HNK (0.025), Fisher's PLSD, Antidepressant drug/Forced Swim Test Day 2
  p, Immobility Time (min 1): 0.2184
Female 129S6/SvEv mice; Sal vs. (2R,6R)-HNK (0.025), t-test, 24 hour prophylactic drug/Forced Swim Test Day 1
  p, Immobility Time Average (min 3-6): 0.5779
Female 129S6/SvEv mice; [11]
  p, Fisher's PLSD, Immobility Time Average (min 3-6), Sham drug vs. OVX drug: 0.0476
  significance (*), Fisher's PLSD, Immobility Time Average (min 3-6), Sham drug vs. OVX drug: * (* p<0.05)
Female 129S6/SvEv mice; [12]
  p, Fisher's PLSD, Immobility Time Average (min 3-6), Sham Sal vs. Sham drug: 0.0099
  significance (*), Fisher's PLSD, Immobility Time Average (min 3-6), Sham Sal vs. Sham drug: ** (** p<0.01)
Female 129S6/SvEv mice; drug administered 1 hour after 3-shock CFC stressor, female mice
  Immobility in the FST (Day 1 and Day 2) vs saline: did not reduce immobility levels; also recorded: Neither (R,S)-ketamine nor (2R,6R)-HNK significantly affected immobility time
Female 129S6/SvEv mice; female mice, 1 week before stressor
  Prophylactically effective dose in females: 0.025 mg/kg
Female 129S6/SvEv mice; ovariectomized mice with cyclic E2 and P4 replacement, drug 1 week before CFC
  Immobility in the FST vs saline: significantly less immobile compared to control saline mice; also recorded: significantly reduced immobility
Female 129S6/SvEv mice; single injection 1 week before stressor, female mice
  Prophylactic efficacy against stress-induced depressive-like behavior: significantly reduced stress-induced depressive-like behavior; also recorded: significantly decreased stress-induced depressive-like behavior; also recorded: is prophylactic against depressive-like behavior; also recorded: prophylactic against stress-induced depressive-like behavior; also recorded: effective prophylactics against a variety of stressors; also recorded: protect against stress-induced depressive-like behavior
Male mice
  Prophylactically effective dose in males: 0.075 mg/kg
